Calls of active or inactive are those of the source.
Columns and labels:
Cytochrome P450 2C19 = Cytochrome P450 2C19 (Homo sapiens, UniProt P33261); experiment: Cytochrome panel assay with activity outcomes. Panel member name: p450-cyp2c19 Compounds with AC50 equal or less than 10 uM are considered active; format: functional; conditions: read-out: AC50
Cytochrome P450 3A4 = Cytochrome P450 3A4 (Homo sapiens, UniProt P08684);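 note: CYP3A4 tested as one member of a cytochrome P450 panel screen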
Protein skinhead-1 = target: T1, Protein skinhead-1 (Caenorhabditis elegans, UniProt P34707); format: functional
T1 sequence (P34707 whole entry): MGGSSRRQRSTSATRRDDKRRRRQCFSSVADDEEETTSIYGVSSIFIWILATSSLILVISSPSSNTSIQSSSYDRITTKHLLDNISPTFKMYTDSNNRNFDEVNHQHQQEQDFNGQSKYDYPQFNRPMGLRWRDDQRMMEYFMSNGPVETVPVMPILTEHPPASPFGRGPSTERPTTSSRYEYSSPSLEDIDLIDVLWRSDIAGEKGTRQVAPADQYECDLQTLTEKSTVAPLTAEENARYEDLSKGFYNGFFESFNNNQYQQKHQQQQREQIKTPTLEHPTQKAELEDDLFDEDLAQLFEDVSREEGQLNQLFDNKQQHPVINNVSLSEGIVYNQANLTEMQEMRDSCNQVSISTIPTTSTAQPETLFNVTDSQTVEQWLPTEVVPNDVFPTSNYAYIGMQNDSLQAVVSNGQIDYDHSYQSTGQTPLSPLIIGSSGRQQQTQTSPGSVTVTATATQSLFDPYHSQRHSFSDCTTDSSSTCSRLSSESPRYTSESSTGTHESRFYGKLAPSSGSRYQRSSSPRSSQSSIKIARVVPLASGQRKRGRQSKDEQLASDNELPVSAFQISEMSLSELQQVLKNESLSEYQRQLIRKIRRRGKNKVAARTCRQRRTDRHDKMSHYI

[1] = target: T2, Corticotropin-releasing factor receptor 2/Corticotropin-releasing factor-binding protein (Homo sapiens, UniProt P24387+Q13324); experiment: activators of CRF receptor 2 with binding protein – uHTS hits, confirmation (AID 602473); format: functional; conditions: read-out: EC50_Mean
T2 sequence (Q13324 whole entry): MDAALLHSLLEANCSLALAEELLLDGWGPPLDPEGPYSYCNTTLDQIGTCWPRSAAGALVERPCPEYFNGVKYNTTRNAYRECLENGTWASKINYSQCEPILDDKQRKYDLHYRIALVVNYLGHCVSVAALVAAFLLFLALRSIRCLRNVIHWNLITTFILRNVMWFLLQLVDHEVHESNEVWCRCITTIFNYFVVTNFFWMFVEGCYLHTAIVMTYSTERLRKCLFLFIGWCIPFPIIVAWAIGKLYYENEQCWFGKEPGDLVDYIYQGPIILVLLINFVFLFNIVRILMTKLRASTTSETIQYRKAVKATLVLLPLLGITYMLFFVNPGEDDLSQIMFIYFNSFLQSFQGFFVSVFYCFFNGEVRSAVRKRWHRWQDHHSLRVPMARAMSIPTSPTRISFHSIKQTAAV
T2 sequence (P24387 whole entry): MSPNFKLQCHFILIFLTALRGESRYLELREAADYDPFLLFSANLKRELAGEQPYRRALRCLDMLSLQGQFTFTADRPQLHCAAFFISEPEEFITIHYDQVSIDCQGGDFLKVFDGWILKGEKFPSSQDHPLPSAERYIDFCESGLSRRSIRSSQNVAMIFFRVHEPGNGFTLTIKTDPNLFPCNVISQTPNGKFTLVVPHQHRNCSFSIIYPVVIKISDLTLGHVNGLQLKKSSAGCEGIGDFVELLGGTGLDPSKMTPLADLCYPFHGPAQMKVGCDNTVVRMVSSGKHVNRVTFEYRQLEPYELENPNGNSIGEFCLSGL

Streptococcus = experiment: GAS UMAA2166 growth inhibition – luminescence, BacTiterGlo, counter-screen for streptokinase expression inhibitor project, dose response (AID 1915); format: functional, organism-based;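 note: potency for reduction of bacterial viability or growth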
[2] = target: T2, Corticotropin-releasing factor receptor 2/Corticotropin-releasing factor-binding protein; experiment: Dose Response confirmation of uHTS hits for small molecule antagonists of the CRF-binding protein and CRF-R2 receptor complex.; format: functional; conditions: read-out: IC50_Mean
[3] = tested on: Streptococcus sp. 'group A'; experiment: Streptococcus pyogenes SK(-)GAS viability under kanamycin – luminescence, BacTiterGlo, confirmation, counter-screen for streptokinase expression inhibitor project, dose response (AID 1900); format: functional, organism-based
[4] = blockers of CRF-binding protein–CRF-R2 complex – cell-based, uHTS hits, 384-well, dose response (AID 651639); format: functional, Homo sapiens; conditions: read-out: IC50_Mean
Streptokinase A = target: T3, Streptokinase A (Streptococcus pyogenes serotype M1, UniProt P10520); experiment: viability-normalized secreted streptokinase activity reduction – plasminogen activation absorbance, OD405, dose response (AID 1914); format: functional, Streptococcus pyogenes M1 GAS;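 note: secreted streptokinase activity via plasminogen activation per viability signal from cell pellet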
T3 sequence (P10520 whole entry): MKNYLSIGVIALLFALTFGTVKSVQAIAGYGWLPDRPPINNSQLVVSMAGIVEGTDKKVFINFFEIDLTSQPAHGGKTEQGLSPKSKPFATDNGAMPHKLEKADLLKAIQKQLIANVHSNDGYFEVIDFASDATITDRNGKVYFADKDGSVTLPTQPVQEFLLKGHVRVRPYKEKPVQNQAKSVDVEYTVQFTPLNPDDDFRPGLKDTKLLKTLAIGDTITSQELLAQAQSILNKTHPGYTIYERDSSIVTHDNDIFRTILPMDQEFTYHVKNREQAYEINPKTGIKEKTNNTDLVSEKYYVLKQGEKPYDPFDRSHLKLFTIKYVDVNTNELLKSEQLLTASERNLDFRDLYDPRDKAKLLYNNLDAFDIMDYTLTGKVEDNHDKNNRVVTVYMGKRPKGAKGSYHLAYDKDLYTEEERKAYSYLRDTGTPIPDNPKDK

[5] = target: Heat shock protein HSP 90-alpha (Homo sapiens, UniProt P07900); format: functional, organism-based
INS1 = experiment: INS-1E survival protection against cytokine death – cell-based, luminescence, retest, dose response (AID 449756); format: functional; conditions: Rattus norvegicus;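 note: cell death triggered by IL-1 beta plus TNF-alpha plus IFN-gamma mixture; protective hits raise ATP signal compared with cytokine alone wells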
Vero = experiment: viability of Vero cells under compound – cytotoxicity control for flavivirus capping enzyme inhibitors (AID 588742); format: functional; conditions: Chlorocebus sabaeus
[6] = target: T4, Microphthalmia-associated transcription factor (Homo sapiens, UniProt O75030); experiment: reducers of TRPM1 reporter luminescence, concentration series – cell-based, SK-MEL-5, cherry-picked, set 3, MITF inhibitor project, dose response (AID 493073); format: functional;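 note: SK-MEL-5 melanoma cells with luciferase driven by the MITF target TRPM1 promoter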
T4 sequence (O75030 whole entry): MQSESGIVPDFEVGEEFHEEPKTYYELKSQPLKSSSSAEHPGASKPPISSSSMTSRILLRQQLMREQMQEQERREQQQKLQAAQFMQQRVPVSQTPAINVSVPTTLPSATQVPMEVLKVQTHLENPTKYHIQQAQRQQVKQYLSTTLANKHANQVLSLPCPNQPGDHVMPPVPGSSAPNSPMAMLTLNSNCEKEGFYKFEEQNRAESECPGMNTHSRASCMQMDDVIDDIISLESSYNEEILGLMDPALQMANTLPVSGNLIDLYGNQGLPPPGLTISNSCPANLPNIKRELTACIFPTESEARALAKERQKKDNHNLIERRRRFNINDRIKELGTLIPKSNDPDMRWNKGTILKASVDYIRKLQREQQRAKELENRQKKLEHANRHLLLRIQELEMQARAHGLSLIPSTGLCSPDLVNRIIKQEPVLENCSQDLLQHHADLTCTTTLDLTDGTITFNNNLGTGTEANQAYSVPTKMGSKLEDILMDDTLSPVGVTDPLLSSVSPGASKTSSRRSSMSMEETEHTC

Cytochrome P450 3A4, sequence (P08684 whole entry): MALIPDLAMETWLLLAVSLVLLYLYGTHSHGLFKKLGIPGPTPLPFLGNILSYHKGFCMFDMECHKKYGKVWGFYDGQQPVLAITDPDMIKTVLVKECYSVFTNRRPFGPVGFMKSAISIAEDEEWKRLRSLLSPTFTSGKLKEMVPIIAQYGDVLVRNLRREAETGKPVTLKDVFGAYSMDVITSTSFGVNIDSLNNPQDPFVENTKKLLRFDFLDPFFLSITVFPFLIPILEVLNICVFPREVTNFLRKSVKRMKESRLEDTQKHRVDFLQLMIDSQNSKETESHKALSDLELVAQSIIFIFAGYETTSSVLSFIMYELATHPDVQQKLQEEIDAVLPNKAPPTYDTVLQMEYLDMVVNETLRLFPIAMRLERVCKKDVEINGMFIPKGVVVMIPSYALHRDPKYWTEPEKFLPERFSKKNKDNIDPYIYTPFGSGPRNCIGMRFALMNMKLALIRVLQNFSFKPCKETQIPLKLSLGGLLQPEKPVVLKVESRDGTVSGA
Cytochrome P450 2C19, sequence (P33261 whole entry): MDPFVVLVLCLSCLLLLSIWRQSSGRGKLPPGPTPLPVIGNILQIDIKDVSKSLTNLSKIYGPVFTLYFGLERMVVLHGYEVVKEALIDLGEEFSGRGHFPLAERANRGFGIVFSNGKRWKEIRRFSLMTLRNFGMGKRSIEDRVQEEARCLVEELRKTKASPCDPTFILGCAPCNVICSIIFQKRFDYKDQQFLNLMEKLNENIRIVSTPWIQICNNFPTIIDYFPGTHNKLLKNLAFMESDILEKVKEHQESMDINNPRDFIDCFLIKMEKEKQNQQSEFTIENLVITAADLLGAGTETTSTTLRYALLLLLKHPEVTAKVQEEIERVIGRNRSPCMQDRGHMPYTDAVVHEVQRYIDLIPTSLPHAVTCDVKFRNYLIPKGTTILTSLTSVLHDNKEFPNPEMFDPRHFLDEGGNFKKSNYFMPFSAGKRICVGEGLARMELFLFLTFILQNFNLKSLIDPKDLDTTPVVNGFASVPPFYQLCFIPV

In the case of O=C(c1ccco1)N1CCC2(CC1)CN(c1ncccn1)C2, the AC50 (Cytochrome P450 2C19) is reported as 25.1 µM (inconclusive) and the AC50 (Cytochrome P450 3A4) is reported as “inconclusive”.

For COc1cccc(NC(=O)CN2CCc3ccccc3C2)c1, the IC50 (Protein skinhead-1) was > 100 µM (inactive).

With Cc1ccc(-c2ccnc3nc(Sc4ncc(C(F)(F)F)cc4Cl)nn23)cc1 the IC50 (Protein skinhead-1) was > 100 µM (inactive).

In the case of COc1ccc(-c2c(C(F)(F)F)nn3c(O)cc(-c4ccccc4)nc23)cc1, the EC50 [1] is reported as > 53 µM (inactive), the EC50 (Streptococcus) is reported as 11.6 µM (active) and the IC50 [2] is reported as 4.6 µM (active). For the same molecule, the EC50 [3] was 8.01 µM (active), the IC50 [4] was 15.7 µM (active) and the EC50 (Streptokinase A) was > 150 µM (not active).

With C=CCOc1ccc(CNC(C)(C)CO)cc1OC.Cl the AC50 (Cytochrome P450 3A4) was “inconclusive”.

For Cc1nc2cc(C(=O)NCc3ccc4c(c3)OCO4)ccc2n1-c1ccc(Br)cc1, the EC50 [1] was > 53 µM (inactive), the IC50 [2] was < 0.368 µM (active) and the IC50 [4] was > 20 µM (inactive).

For O=C(/C=C/c1cccc([N+](=O)[O-])c1)c1ccc([N+](=O)[O-])o1, the AC50 [5] was 0.557 µM (active), the EC50 (Streptococcus) was 8.2 µM (active) and the EC50 [3] was 2.33 µM (active). For the same molecule, the EC50 (Streptokinase A) was > 150 µM (not active), the AC50 (INS1) was 2.18 µM (active) and the CC50 (Vero) was 30.7 µM (active).

For CC(=O)[C@H]1CC[C@H]2[C@@H]3C=CC4=CC(=O)CC[C@@]4(C)[C@H]3CC[C@]12C, the AC50 (Cytochrome P450 3A4) was “inconclusive”.

For COc1cccc(-c2csc3ncnc(Sc4nnnn4C)c23)c1, the AC50 [6] was 25 µM (active).

With O=C(Oc1ccccc1)N1CCC2(CCN(Cc3nccs3)CC2)CC1 the AC50 (Cytochrome P450 3A4) was “inconclusive”.

Reference: ChEMBL document CHEMBL1201862, “PubChem BioAssay data set” (2004)
